Here are results for five molecules from patent US7541366B2, “Pyrrolo[3,2-c]pyridine derivatives and processes for the preparation thereof” (YUHAN Corporation, priority 2004, dated 2009).

Usually IC50 stands for the midpoint of a concentration-inhibition curve. The term ED50 denotes the dose at which the effect has come halfway, by size or by number of responders. The low end stands for greater potency, the high end for weaker potency.

In experiment [1] the target is T1, proton pump (H+/K+-ATPase) (Sus scrofa, UniProt P19156).
T1 construct: used as an enzyme source of the in vitro enzyme reaction assay of proton pump; from tissue; host or cells: hog gastric fundic mucosa; membrane vesicles, lyophilized
T1 sequence (P19156 whole entry): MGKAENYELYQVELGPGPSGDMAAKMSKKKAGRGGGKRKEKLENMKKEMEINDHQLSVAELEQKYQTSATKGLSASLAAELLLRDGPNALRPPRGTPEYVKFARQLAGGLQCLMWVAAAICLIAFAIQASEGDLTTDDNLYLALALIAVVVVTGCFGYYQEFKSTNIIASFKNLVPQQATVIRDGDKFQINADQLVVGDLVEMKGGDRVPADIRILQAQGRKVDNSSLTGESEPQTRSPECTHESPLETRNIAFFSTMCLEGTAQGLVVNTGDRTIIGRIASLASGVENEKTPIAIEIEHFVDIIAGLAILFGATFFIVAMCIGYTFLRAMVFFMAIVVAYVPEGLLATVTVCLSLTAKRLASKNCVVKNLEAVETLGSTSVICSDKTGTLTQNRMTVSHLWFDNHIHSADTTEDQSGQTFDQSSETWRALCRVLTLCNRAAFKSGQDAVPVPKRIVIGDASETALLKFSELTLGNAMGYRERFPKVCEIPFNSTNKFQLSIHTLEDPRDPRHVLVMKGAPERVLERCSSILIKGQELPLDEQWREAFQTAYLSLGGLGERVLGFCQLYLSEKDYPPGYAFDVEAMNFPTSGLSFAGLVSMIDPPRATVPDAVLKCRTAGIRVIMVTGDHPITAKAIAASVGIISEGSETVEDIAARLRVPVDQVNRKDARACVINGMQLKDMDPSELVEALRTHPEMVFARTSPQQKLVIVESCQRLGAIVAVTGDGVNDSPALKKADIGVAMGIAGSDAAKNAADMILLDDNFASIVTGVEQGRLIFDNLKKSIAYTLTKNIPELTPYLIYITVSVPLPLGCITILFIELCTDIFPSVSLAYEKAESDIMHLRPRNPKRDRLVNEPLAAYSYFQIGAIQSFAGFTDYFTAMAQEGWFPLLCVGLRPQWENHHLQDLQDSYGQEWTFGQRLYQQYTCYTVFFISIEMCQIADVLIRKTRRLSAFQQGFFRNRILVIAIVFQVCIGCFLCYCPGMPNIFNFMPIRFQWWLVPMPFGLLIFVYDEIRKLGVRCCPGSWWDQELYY
T1 sequence (P18434 whole entry partner): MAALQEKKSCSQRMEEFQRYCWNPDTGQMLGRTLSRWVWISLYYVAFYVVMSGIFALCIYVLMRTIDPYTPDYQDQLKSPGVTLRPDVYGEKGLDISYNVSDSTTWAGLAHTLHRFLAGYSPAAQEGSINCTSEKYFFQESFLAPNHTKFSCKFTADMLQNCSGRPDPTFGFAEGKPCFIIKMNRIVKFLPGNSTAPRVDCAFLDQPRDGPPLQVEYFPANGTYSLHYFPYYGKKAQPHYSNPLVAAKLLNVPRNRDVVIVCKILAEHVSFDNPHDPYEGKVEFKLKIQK
In words: Inhibitory effects on proton pump (H+/K+-ATPase) activity. It counts as biochemical. The settings on record: hog gastric vesicles, K+ stimulated H+/K+-ATPase activity, Pi at 620 nm, 30 minutes at 37° C. The procedure: 1-1. Preparation of gastric proton pump vesicles
The hog fundic regions containing parietal and peptic cells were scraped with slide-glass. The collected cells were suspended in 10 ml of 0.25M sucrose buffer and homogenized using a tight-fitting Teflon-glass homogenizer. The homogenate was centrifuged for 35 min at 8,000 rpm and the pellet was discarded. The supernatant was further centrifuged for 75 min at 25,000 rpm. The resulting pellets were re-suspended in the sucrose buffer (10 ml), and then the suspension was laid onto discontinuous density gradients consisting of 0.25M sucrose buffer and isolation medium containing 9% Ficoll (w/w). After being centrifuged for 3 hours and 15 minutes at 100,000×g, the material at the interface of sucrose buffer and Ficoll solution was collected and then centrifuged for 40 minutes at 100,000×g. The resulting pellets were re-suspended in 1 ml of 5 mM Hepes/Tris buffer (pH 6.1). This material was lyophilized and stored at −70° C. and used as an enzyme source of the in vitro enzyme reaction assay of proton pump.
1-2. Measurement of inhibitory effects on proton pump (H^+/K^+-ATPase) activity
The inhibitory effects of the compounds of the present invention against proton pump activity were evaluated in 96-well plate. In this assay, the K^+specific H^+/K^+-ATPase activity was calculated based on the difference between the activity of H^+/K^30 -ATPase activity with K^30 and without K^30 ion. In 96-well plate, 1% dimethylsulfoxide (DMSO) in buffer was added to negative and positive control groups and the diluted compounds of the present invention in buffer were added to test group. All assays were performed in 100μl reaction volume at room temperature, and the hog gastric vesicle was kept in ice before use. At the beginning of the reaction, 10μl of reaction buffer containing 1% DMSO was added to the negative and positive control groups and to reaction buffer each concentration of compounds in the test group. Then lyophilized vesicle in 5mM Pipes/Tris buffer (pH 6.1) was pre-incubated in the presence of various concentrations of test compounds. After a 5 minute incubation, negative and positive buffers were respectively added to the previous reaction mixture. As the substrate, ATP was added to the reaction buffer, and incubated for 30 minutes at 37° C. Enzymatic activity was stopped by the addition of colorimetric reagent (2X malachite green, 1X ammonium molybdate, X polyvinyl alcohol, 2X H2O) and the amount of mono phosphate (Pi) in the reaction was measured at 620nm using the micro plate reader (Genios Pro, TECAN). The difference between the Pi production with K^+and without K^+is taken as K^+stimulated H^+/K^+-ATPase activity. The IC50s of test compounds were calculated from each % inhibition value of compounds using the method of Litchfield-Wilcoxon (J. Pharmacol. Exp. Ther. (1949) 96, 99).

The subject of experiment [2] is basal gastric acid secretion. In words: Inhibitory effects on basal gastric acid secretion in pylorus-ligated rats (Shay's rat model). Format: in vivo, Sprague Dawley (SD) rats. The conditions noted are these: oral, one hour before pylorus ligation, total acid output 5 hours after ligation, male SD rats. The procedure: Test Example 2. Inhibitory effects on basal gastric acid secretion in pylorus-ligated rats. Inhibitory effects of the compounds of the present invention on basal gastric acid secretion were performed according to Shay's rat model (Shay, H., et al., 1945, gastroenterology, 5, 43-61). Male Sprague Dawley (SD) rats (200±10 g body weight) were divided into 3 groups (n=5) and fasted for 24 hours with free access to water. Control group was orally administered with 0.5% methylcellulose alone and the other groups were orally administered with test compounds suspended in 0.5% methyl-cellulose solution at doses of 1, 3 and 10 mg/kg/5 ml one hour before pylorus ligation. Under ether anesthesia, the abdomens of the rats were incised and then the pylorus was ligated. 5 hours after ligation, the animals were sacrificed, and the gastric contents were collected. The collected contents were centrifuged at 1,000×g for 10 minutes to obtain the gastric juice. Total acid output was measured by 0.01N NaOH volume (ueq/ml) for automatic titration of the gastric juice to pH 7.0 and the ED50s of test compounds were calculated using the Litchfield-Wilcoxon method. % inhibitory activity was calculated from the following equation and the results are shown in Table 2. %inhibitory activity of test compound=(total acid output of control group−total acid output of the group treated with test compounds)/total acid output of control group X 100

In the next experiment the target is T2, hog gastric H+/K+-ATPase (Sus scrofa, UniProt P19156).
T2 construct: from tissue; host or cells: hog gastric fundic mucosa; gastric vesicles/microsomes, lyophilized
T2 sequence (P19156 whole entry): as the sequence (P19156 whole entry) above
T2 sequence (P18434 whole entry partner): as the sequence (P18434 whole entry partner) above
In words: Reversible inhibition of hog gastric H+/K+-ATPase (Washout method). It counts as biochemical. The procedure:
Gastric vesicles were prepared from hog fundic mucosa using the method of Saccomani et al. (Saccomani G, Stewart H B, Shqw D, Lewin M and Sachs G, Characterization of gastric mucosal membranes. IX. Fraction and purification of K-ATPase-containing vesicles by zonal centrifugation and free-flow electrophoresis techinque. Biochem. Biophy. Acta.(BBA)—Biomembranes 465, 311-330, 1977.). This material was lyophilized and stored at −70° C. The protein content of gastric vesicles was determined by the Bradford method using bovine serum albumin as a standard (Bradford M M, A rapid and sensitive method for the quantitation of microgram quantities of protein utilizing the principle of protein-dye binding. Anal Biochem. 72, 248-254, 1976).
Activity of H^+/K^+-ATPase in hog microsome (lyophilized vesicle) was measured by the inorganic phosphate released from ATP using an one-step colorimetric detection method at the concentration at which the test compounds have 50% inhibition of the proton pump (Chan K M, Delfert D, and Junger K D, A direct colorimetric assay for Ca^2+-stimulated ATPase activity. Anal Biochem, 157, 375-380, 1986). […]

`C#CCn1c(C)c(C)c2cncc(OCc3ccc(F)cc3)c21.Cl` [Example 2, 7-(4-fluorobenzyloxy)-2,3-dimethyl-1-(prop-2-ynyl)-1H-pyrrolo[3,2-c]pyridine hydrochloride] displayed an IC50 in experiment [1] of 10 nM. Moreover, in experiment [2], the 50% effect level (ED50) was put at a dose of 1.1 mg/kg.

For the molecule `COCCn1c(C)c(C)c2cncc(OCc3ccc(F)cc3)c21.Cl` [Example 17, 7-(4-fluorobenzyloxy)-1-(2-methoxyethyl)-2,3-dimethyl-1H-pyrrolo[3,2-c]pyridine hydrochloride], the IC50 in experiment [1] was 10 nM. The same molecule yielded a median effective dose (ED50) in experiment [2] of 3.3 mg/kg.

In experiment [1], `Cc1c(C)n(Cc2ccccc2)c2c(OCc3ccc(F)cc3)cncc12.Cl` [Example 12, 1-benzyl-7-(4-fluorobenzyloxy)-2,3-dimethyl-1H-pyrrolo[3,2-c]pyridine hydrochloride] yielded a concentration for half-maximal inhibition (IC50) of 10 nM. It took a dose of 3.3 mg/kg to reach the 50% effect level in experiment [2] (ED50).

For `CCCn1c(C)c(C)c2cncc(OCc3ccc(F)cc3)c21.Cl` [Example 16, 7-(4-fluorobenzyloxy)-2,3-dimethyl-1-propyl-1H-pyrrolo[3,2-c]pyridine hydrochloride], the IC50 in experiment [1] was 10 nM. Moreover, the 50% effect level in experiment [2] (ED50) was put at a dose of 1.8 mg/kg.

Regarding `CCCn1c(C)c(C)c2cncc(N3CCc4ccccc4C3)c21.Cl` [Example 38, 2-(2,3-dimethyl-1-propyl-1H-pyrrolo[3,2-c]pyridin-7-yl)-1,2,3,4-tetrahydroisoquinoline hydrochloride], in experiment [1], the concentration for half-maximal inhibition (IC50) was 190 nM. The “inhibition of H+/K+-ATPase activity after washout” value against hog gastric H+/K+-ATPase (after washout, compared with non-treated group) was “did not inhibit”. Besides, on hog gastric H+/K+-ATPase (before washout, test compound at the concentration at which it has 50% inhibition), the “inhibition of H+/K+-ATPase activity before washout” value was determined as 50%.
